{
  "source": "patent US9375434B2",
  "about": "“Antitumor effect potentiator composed of imidazooxazine compound” (Taiho Pharmaceutical Co., Ltd., priority 2012, dated 2016)",
  "key": {"[1]": {"tested_on": "Human ovarian cancer cell line (A2780)", "test": "Potentiation of antitumor effect of irinotecan, A2780 subcutaneous implant in nude mice (Test Example 5)", "format": "in vivo, BALB/cA Jcl-nu/nu mice", "details": "irinotecan 75 mg/kg/day day 1, 8; route printed p.o.", "method": "As an index of antitumor effect, the TV at Day 15 was measured for each of the drug administration groups, and the relative tumor volume (RTV) relative to Day 1 and T/C (%) were calculated by the following formulas to evaluate the antitumor effect.\nTV (mm^3)=(length×width^2)/2 RTV=(TV at Day 15)/(TV at Day 1) T/C(%)=(average RTV value of the test liquid administration group)/(average RTV value of the control group)×100\nHuman ovarian cancer cell line (A2780) was subcutaneously implanted into the right flank of 7-week-old male BALB/cA Jcl-nu/nu mice, and was used in the same manner as in Test Example 1. […] Further, the test liquid of Compound-I was prepared by adjusting its dose to 16 mg/kg/day.\nThe effect of the combined administration was also statistically determined in the same manner as in Test Example 1. […] FIG. 9 and Table 14 show the results. Further, the change in the body weight over time was evaluated as an index of toxicity in the same manner as in Test Example 1."}, "[2]": {"tested_on": "Human ovarian cancer A2780 cell line", "test": "Potentiation of antitumor effect of paclitaxel, A2780 subcutaneous implant in nude mice (Test Example 1)", "format": "in vivo, BALB/cA Jcl-nu/nu mice", "details": "paclitaxel 60 mg/kg/day i.v. day 1, 8", "method": "Human ovarian cancer A2780 cell line was subcutaneously implanted into the right flank of 7-week-old male BALB/cA Jcl-nu/nu mice. After the implant, the length (mm) and the width (mm) of the tumor were measured, and the tumor volume (TV) was calculated. Thereafter, the mice were divided into groups so that the average TV is equalized in each group. The day of grouping (n=5) is referred to as Day 0. […] Test liquids for the groups receiving only Compound-I were prepared by diluting Compound-I with 0.5% hydroxypropyl methylcellulose (HPMC) so as to enable administration at a Compound-I dose of 8 mg/kg/day, 16 mg/kg/day, and 24 mg/kg/day. […] In the groups receiving the two drugs, Compound-I was administered at doses of 8 mg/kg/day, 16 mg/kg/day, and 24 mg/kg/day, and paclitaxel was administered at a dose of 60 mg/kg/day. […] In the figure, the asterisk represents a result having a statistically significant difference compared with the single-drug administration group. FIG. 1 and Table 10 show the results."}, "[3]": {"tested_on": "Human stomach cancer cell line (NCI-N87)", "test": "Potentiation of antitumor effect of paclitaxel, NCI-N87 subcutaneous implant in nude mice (Test Example 2)", "format": "in vivo, BALB/cA Jcl-nu/nu mice", "details": "paclitaxel 60 mg/kg/day i.v. day 1, 8", "method": "In the figure, the asterisk represents a result having a statistically significant difference compared with the single-drug administration group. FIG. 1 and Table 10 show the results. […] Ltd.) was prepared to enable administration at a paclitaxel dose of 60 mg/kg/day. Further, test liquids for the groups receiving only Compound-I were prepared to enable administration at Compound-I doses of 8 mg/kg/day, 16 mg/kg/day, and 24 mg/kg/day. […] In the groups receiving the two drugs, Compound-I was administered at doses of 8 mg/kg/day, 16 mg/kg/day, and 24 mg/kg/day, and paclitaxel was administered at a dose of 60 mg/kg/day. The evaluation was performed in the same manner as in Test Example 1. The effect of the combined administration was also statistically determined in the same manner as in Test Example 1. In the figure and the table, the asterisk represents a result having a statistically significant difference compared with the single-drug administration group. FIG. 3 and Table 11 show the results."}, "[4]": {"tested_on": "Human stomach cancer cell line (NCI-N87)", "test": "Potentiation of antitumor effect of lapatinib, NCI-N87 subcutaneous implant in nude mice (Test Example 4)", "format": "in vivo, BALB/cA Jcl-nu/nu mice", "details": "lapatinib 100 mg/kg/day p.o. day 1-14 (q.d.)", "method": "In the figure, the asterisk represents a result having a statistically significant difference compared with the single-drug administration group. FIG. 1 and Table 10 show the results. […] Lapatinib was prepared by adjusting its dose to 100 mg/kg/day. Further, the test liquid of Compound-I was prepared by adjusting its dose to 16 mg/kg/day. […] The effect of the combined administration was also statistically determined in the same manner as in Test Example 1. In the figure and the table, the asterisk represents a result having a statistically significant difference compared with the single-drug administration group. FIG. 7 and Table 13 show the results."}, "[5]": {"tested_on": "Human stomach cancer cell line (NCI-N87)", "test": "Potentiation of antitumor effect of everolimus, NCI-N87 subcutaneous implant in nude mice (Test Example 7)", "format": "in vivo, BALB/cA Jcl-nu/nu mice", "details": "everolimus 5 mg/kg/day p.o. day 1-14", "method": "As an index of antitumor effect, the TV at Day 15 was measured for each of the drug administration groups, and the relative tumor volume (RTV) relative to Day 1 and T/C (%) were calculated by the following formulas to evaluate the antitumor effect. […] In the figure, the asterisk represents a result having a statistically significant difference compared with the single-drug administration group.\nFIG. 1 and Table 10 show the results. TV (mm^3)=(length×width^2)/2 RTV=(TV at Day 15)/(TV at Day 1) T/C(%)=(average RTV value of the test liquid administration group)/(average RTV value of the control group)×100\nHuman stomach cancer cell line (NCI-N87) was subcutaneously implanted into the right flank of 7-week-old male BALB/cA Jcl-nu/nu mice, and was used in the same manner as in Test Example 1.\nIn the group receiving only everolimus (IS Chemical Technology), the test liquid was prepared to enable administration at an everolimus dose of 5 mg/kg/day. A vehicle of 5% ethyl alcohol/5% PEG400/4% Tween 20/86% distilled water was used. In the groups receiving only Compound-I, the test liquid was prepared by diluting Compound-I with 0.5% HPMC to enable administration at a Compound-I dose of 16 mg/kg/day. In the combined administration group, Compound-I was administered at a dose of 16 mg/kg/day, and everolimus was administered at a dose of 5 mg/kg/day. Both Compound-I and everolimus were orally administered once a day for 14 days from Day 1, and the evaluation was performed in the same manner as in Test Example 1. FIG. 13 and Table 16 show the results.\nIn the figure and the table, the asterisk represents a result having a statistically significant difference compared with the single-drug administration group."}, "[6]": {"tested_on": "Human ovarian cancer cell line (A2780)", "test": "Potentiation of antitumor effect of doxorubicin, A2780 subcutaneous implant in nude mice (Test Example 6)", "format": "in vivo, BALB/cA Jcl-nu/nu mice", "details": "doxorubicin 7 mg/kg/day day 1, 8", "method": "In the groups receiving only Compound-I, the test liquid was prepared by diluting Compound-I with 0.5% HPMC to enable administration at a Compound-I dose of 16 mg/kg/day. […] The effect of the combined administration was also statistically determined in the same manner as in Test Example 1."}, "[7]": {"tested_on": "Human ovarian cancer cell line (A2780)", "test": "Potentiation of antitumor effect of carboplatin, A2780 subcutaneous implant (Test Example 3)", "format": "in vivo, nude rats", "details": "carboplatin 50 mg/kg/day i.v. day 1, 8", "method": "In the figure, the asterisk represents a result having a statistically significant difference compared with the single-drug administration group. FIG. 1 and Table 10 show the results. […] Carboplatin was prepared by diluting a […] injection (Bristol-Myers Squibb, 50 mg/5 mL) two-fold with physiological saline to enable administration at a carboplatin dose of 50 mg/kg/day. Further, the test liquid of Compound-I was prepared by adjusting its dose to 16 mg/kg/day. […] The single-drug administration group was administered 0.5% HPMC or a physiological saline as a vehicle instead of Compound-I or carboplatin. […] FIG. 5 and Table 12 show the results. […] The effect of the combined administration was also statistically determined in the same manner as in Test Example 1. In the figure and the table, the asterisk represents a result having a statistically significant difference compared with the single-drug administration group."}},
  "data": [
    {"smiles": "CCc1c2c(nc3ccc(OC(=O)N4CCC(N5CCCCC5)CC4)cc13)-c1cc3c(c(=O)n1C2)COC(=O)[C@]3(O)CC", "note": "[irinotecan, reference compound]", "values": [
      {"measurement": "RTV day 15 Mean ± SD", "setting": "[1]", "result": "11.92 ± 3.68"}
    ]},
    {"smiles": "CC(=O)O[C@H]1C(=O)[C@@]2(C)[C@H]([C@H](OC(=O)c3ccccc3)[C@]3(O)C[C@H](OC(=O)[C@H](O)[C@@H](NC(=O)c4ccccc4)c4ccccc4)C(C)=C1C3(C)C)[C@]1(OC(C)=O)CO[C@@H]1C[C@@H]2O", "note": "[paclitaxel, reference compound]", "values": [
      {"measurement": "RTV day 15 Mean ± SD", "setting": "[2]", "result": "6.96 ± 1.41"},
      {"measurement": "T/C (%)", "setting": "[2]", "result": 27, "unit": "%"},
      {"measurement": "RTV day 15 Mean ± SD", "setting": "[3]", "result": "1.09 ± 0.40"},
      {"measurement": "T/C (%)", "setting": "[3]", "result": 32, "unit": "%"}
    ]},
    {"smiles": "CS(=O)(=O)CCNCc1ccc(-c2ccc3ncnc(Nc4ccc(OCc5cccc(F)c5)c(Cl)c4)c3c2)o1", "note": "[Lapatinib, lapatinib, reference compound]", "values": [
      {"measurement": "RTV day 15 Mean ± SD", "setting": "[4]", "result": "1.37 ± 0.28"},
      {"measurement": "T/C (%)", "setting": "[4]", "result": 51, "unit": "%"}
    ]},
    {"smiles": "CO[C@H]1C[C@@H]2CC[C@@H](C)[C@@](O)(O2)C(=O)C(=O)N2CCCC[C@H]2C(=O)O[C@H]([C@H](C)C[C@@H]2CC[C@@H](OCCO)[C@H](OC)C2)CC(=O)[C@H](C)/C=C(\\C)[C@@H](O)[C@@H](OC)C(=O)[C@H](C)C[C@H](C)/C=C/C=C/C=C/1C", "note": "[Everolimus, everolimus, reference compound]", "values": [
      {"measurement": "RTV day 15 Mean ± SD", "setting": "[5]", "result": "1.32 ± 0.11"},
      {"measurement": "T/C (%)", "setting": "[5]", "result": 47.3, "unit": "%"}
    ]},
    {"smiles": "COc1cccc2c1C(=O)c1c(O)c3c(c(O)c1C2=O)C[C@@](O)(C(=O)CO)C[C@@H]3O[C@H]1C[C@H](N)[C@H](O)[C@H](C)O1", "note": "[Doxorubicine, doxorubicin, reference compound]", "values": [
      {"measurement": "T/C (%)", "setting": "[6]", "result": 45, "unit": "%"}
    ]},
    {"smiles": "N.N.O=C([O-])C1(C(=O)[O-])CCC1.[Pt+2]", "note": "[Carboplatin, carboplatin, reference compound]", "values": [
      {"measurement": "RTV day 15 Mean ± SD", "setting": "[7]", "result": "20.99 ± 4.57"},
      {"measurement": "T/C (%)", "setting": "[7]", "result": 82, "unit": "%"}
    ]}
  ]
}
